Holding throughout (format): functional, cell-based
The target of experiment [1] is T1, Solute carrier family 15 member 2 (Rattus norvegicus) (UniProt Q63424).
T1 sequence (whole entry): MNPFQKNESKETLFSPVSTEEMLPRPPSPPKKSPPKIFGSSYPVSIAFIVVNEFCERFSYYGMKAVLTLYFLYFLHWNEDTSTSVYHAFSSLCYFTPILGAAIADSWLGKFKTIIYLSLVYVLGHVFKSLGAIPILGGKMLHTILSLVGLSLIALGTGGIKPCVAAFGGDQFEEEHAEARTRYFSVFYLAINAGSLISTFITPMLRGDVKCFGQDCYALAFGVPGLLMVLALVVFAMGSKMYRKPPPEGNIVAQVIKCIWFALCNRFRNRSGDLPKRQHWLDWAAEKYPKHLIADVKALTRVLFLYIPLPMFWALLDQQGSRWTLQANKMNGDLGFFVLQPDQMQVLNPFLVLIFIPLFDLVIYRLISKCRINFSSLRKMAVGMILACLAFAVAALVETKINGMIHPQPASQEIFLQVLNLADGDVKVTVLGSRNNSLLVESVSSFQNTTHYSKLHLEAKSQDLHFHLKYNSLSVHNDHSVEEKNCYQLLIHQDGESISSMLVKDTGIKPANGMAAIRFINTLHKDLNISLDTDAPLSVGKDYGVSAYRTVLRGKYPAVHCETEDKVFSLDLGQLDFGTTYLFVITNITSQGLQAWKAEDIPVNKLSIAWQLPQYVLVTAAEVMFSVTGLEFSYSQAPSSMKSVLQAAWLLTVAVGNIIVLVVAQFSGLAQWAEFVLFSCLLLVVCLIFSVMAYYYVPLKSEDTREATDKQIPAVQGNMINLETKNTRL
Kind of experiment: TP_TRANSPORTER: inhibition of Gly-Sar uptake (Gly-Sar: 20 uM, Tolbutamide: 1000uM) in PEPT2-expressing LLC-PK1 cells.

Experiment [2] addresses T2, Solute carrier family 15 member 1 (Rattus norvegicus) (UniProt P51574).
T2 sequence (whole entry): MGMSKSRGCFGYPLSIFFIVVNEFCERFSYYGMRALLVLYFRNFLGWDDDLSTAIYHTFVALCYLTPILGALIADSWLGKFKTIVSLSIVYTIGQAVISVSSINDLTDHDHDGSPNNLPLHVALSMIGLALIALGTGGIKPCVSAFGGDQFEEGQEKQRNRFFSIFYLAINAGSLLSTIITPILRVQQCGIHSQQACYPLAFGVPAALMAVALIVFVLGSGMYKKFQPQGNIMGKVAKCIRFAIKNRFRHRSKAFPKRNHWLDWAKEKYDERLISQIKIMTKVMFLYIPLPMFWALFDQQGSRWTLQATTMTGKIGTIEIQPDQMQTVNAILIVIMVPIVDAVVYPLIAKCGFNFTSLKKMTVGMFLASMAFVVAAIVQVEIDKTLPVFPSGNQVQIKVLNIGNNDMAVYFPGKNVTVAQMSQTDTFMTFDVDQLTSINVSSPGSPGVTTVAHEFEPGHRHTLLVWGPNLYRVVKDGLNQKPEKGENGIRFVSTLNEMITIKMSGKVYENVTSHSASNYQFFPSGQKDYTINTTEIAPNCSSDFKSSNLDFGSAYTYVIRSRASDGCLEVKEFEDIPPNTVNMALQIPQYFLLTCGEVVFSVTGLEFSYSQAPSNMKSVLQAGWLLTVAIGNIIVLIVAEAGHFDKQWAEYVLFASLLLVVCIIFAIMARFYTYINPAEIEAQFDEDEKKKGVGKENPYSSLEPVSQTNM
Kind of experiment: TP_TRANSPORTER: inhibition of Gly-Sar uptake (Gly-Sar: 20 uM, Tolbutamide: 1000uM) in PEPT1-expressing LLC-PK1 cells.

The target in experiment [3] is T1, Solute carrier family 15 member 2 (Rattus norvegicus). Kind of experiment: TP_TRANSPORTER: uptake in PEPT2-expressing LLC-PK1 cells.
For experiment [4], the target named is T2, Solute carrier family 15 member 1 (Rattus norvegicus). Kind of experiment: TP_TRANSPORTER: uptake in PEPT1-expressing LLC-PK1 cells.
In experiment [5] the target is T3, Solute carrier family 15 member 2 (Rattus norvegicus, UniProt Q63424).
T3 sequence (Q63424 whole entry): T1 sequence (whole entry)
Briefly: TP_TRANSPORTER: inhibition of Gly-Sar uptake (Gly-Sar: 20 uM) in PEPT2-expressing LLC-PK1 cells.

Experiment [6] deals with T4, Solute carrier family 15 member 1 (Rattus norvegicus, UniProt P51574).
T4 sequence (P51574 whole entry): T2 sequence (whole entry)
Kind of experiment: TP_TRANSPORTER: inhibition of Gly-Sar uptake (Gly-Sar: 20 uM) in PEPT1-expressing LLC-PK1 cells.

Experiment [7] addresses T1, Solute carrier family 15 member 2 (Rattus norvegicus). Kind of experiment: TP_TRANSPORTER: inhibition of Gly-Sar uptake (Gly-Sar: 20 uM, Chlorpropamide: 1000uM) in PEPT2-expressing LLC-PK1 cells.
The target of experiment [8] is T2, Solute carrier family 15 member 1 (Rattus norvegicus). Briefly: TP_TRANSPORTER: inhibition of Gly-Sar uptake (Gly-Sar: 20 uM, Chlorpropamide: 1000uM) in PEPT1-expressing LLC-PK1 cells.

Each structure is given as a SMILES string.

On to `CCCCNC(=O)NS(=O)(=O)c1ccc(C)cc1`, for which the Activity result in experiment [1] and in experiment [2] was “inhibitor [+]” each time.

Broadly, the IC50 is the concentration at which inhibition is half-maximal. Low values mean inhibition by little substance, high ones a need for much substance. As to `CC(C)[C@H]1CC[C@H](C(=O)N[C@H](Cc2ccccc2)C(=O)O)CC1` [NATEGLINIDE], the Activity result in experiment [3] and in experiment [4] was “is not a substrate [-]” each time. The half-inhibitory concentration (IC50) in experiment [5] is 70 µM; in experiment [6], 160 µM.

Take `CCCNC(=O)NS(=O)(=O)c1ccc(Cl)cc1`: the Activity result in experiment [7] and in experiment [8] was “inhibitor [+]” in each case.

The values are drawn from ChEMBL document CHEMBL2074114, “Inhibitory effect of novel oral hypoglycemic agent nateglinide (AY4166) on peptide transporters PEPT1 and PEPT2” (Eur J Pharmacol, 2000).
